Patent US7727558B2, “Polymeric delivery agents and delivery agent compounds” (Emisphere Technologies, Inc., priority 1999, dated 2010)
Where “and” joins values, the source holds several entries; their conditions need not be identical. Equal values may be shown once.

Test: Oral administration of rhGH with delivery agent or conjugate in rats, serum rhGH by immunoassay
Type: in vivo, Sprague-Dawley rats
Conditions: individual rat, 200 mg/kg conjugate = 20 mg/kg delivery agent
Procedure: Oral gavage (PO) and/or intracolonic (IC) dosing solutions of delivery agent compound and rhGH in water, phosphate buffer (PB) or 5% aqueous ethanol were prepared. Typically, a solution of the conjugate was prepared by mixing in water and stirred. The final dosing solutions were prepared by mixing the conjugate solution with an rhGH stock solution (typically 15 mg rhGH/ml) and diluting to the desired volume (usually 3.0 ml). The compounds and rhGH dose amounts are listed below in Table 1.
Male Sprague-Dawley rats weighing between 200-250 g were fasted for 24 hours and administered ketamine (44 mg/kg) and chlorpromazine (1.5 mg/kg) 15 minutes prior to dosing. A dosing group of five rats was administered one of the dosing solutions. For oral gavage (PO), an […] Rusch 8 French catheter was adapted to a 1 ml syringe with a pipette tip. The syringe was filled with dosing solution by drawing the solution through the catheter, which was then wiped dry. The catheter was placed down the esophagus leaving 1 cm of tubing past the rat's incisors. Solution was administered by pressing the syringe plunger. For intracolonic (IC) dosing, a 7.5 cm Rusch catheter tube (French 8 or 6) was adapted to a syringe with an Eppendorf pipette tip. The syringe was filled with the 0.5 ml dosing solution by drawing the solution through the catheter tube. The catheter tube was wiped dry. K-Y jelly was applied to the tip, avoiding contact with the eye of the tube, and the tube was inserted into the colon through the anus until the tube was no longer visible. The solution was injected by pressing the syringe plunger, and the tube was removed.
Blood samples were collected serially from the tail artery, typically at time=0, 15, 30, 45, 60 and 90 minutes for oral and 0, 10, 20, 30, 60 and 90 for IC dosing. Serum rHGH concentrations were quantified by an rHGH immunoassay test kit (Kit # K1F4015 from Genzyme Corporation Inc., Cambridge, Mass.). Previous studies indicated baseline values of about zero.
The experiments were performed at 1/10 the delivery agent concentration versus that of the conjugate. Thus, at a dose of 200 mg/kg conjugate, the actual amount of delivery agent dosed was 20 mg/kg.

Serum rhGH concentration, Min45 (45 min, listed as (a)): 35.53 and 0 (4×) and 4.29 and 18.35 | Serum rhGH concentration, Min90 (90 min, listed as (a)): 2.715 and 0 (5×) and 1.47 | Serum rhGH concentration, Base line (baseline (time 0)): 0
SMILES: O=C(O)CCCCCCCNC(=O)c1ccccc1O [delivery agent I]
Serum rhGH concentration, Min15 (15 min, listed as (a)): 45.34 and 0 and 64.2 and 43.14 and 84.73 and 79.98 and 48.72 | Serum rhGH concentration, Min30 (30 min, listed as (a)): 46.52 and 58.44 and 18.99 and 23.44 and 13.19 and 22.69 and 1.82 | Serum rhGH concentration, Min60 (60 min, listed as (a)): 34.885 and 3.922 and 10.13 and 15.93 and 10.565 and 5.49 and 7.905
